Assay results taken from ChEMBL document CHEMBL1138173, “Synthesis and biological evaluation of photoaffinity labeled fusidic acid analogues” (2006).
Values after ≈ are worked out from the molar mass of the structure shown.

Experiments:
Assay type in all cases: functional
Staphylococcus aureus [1] = test: Antibacterial activity against Staphylococcus aureus CJ 234 R
Staphylococcus aureus [2] = test: Antibacterial activity against Staphylococcus aureus CJ 200
Staphylococcus aureus [3] = test: Antibacterial activity against Staphylococcus aureus CJ 251
Staphylococcus aureus [4] = test: Antibacterial activity against Staphylococcus aureus CJ 288
[5] = tested on: Staphylococcus epidermidis; test: Antibacterial activity against Staphylococcus epidermidis CK 5
Corynebacterium xerosis = test: Antibacterial activity against Corynebacterium xerosis FF
Staphylococcus aureus [6] = test: Antibacterial activity against Staphylococcus aureus CJ 247

Row | MIC (Staphylococcus aureus [1]) [µg/mL] | MIC (Staphylococcus aureus [2]) [µg/mL] | MIC (Staphylococcus aureus [3]) [µg/mL] | MIC (Staphylococcus aureus [4]) [µg/mL] | MIC [5] [µg/mL] | MIC (Corynebacterium xerosis) [µg/mL] | MIC (Staphylococcus aureus [6]) [µg/mL] | Compound
1 | 1 (≈ 1.65 µM) | 1 (≈ 1.65 µM) | 1 (≈ 1.65 µM) | 1 (≈ 1.65 µM) | 4 (≈ 6.58 µM) | 0.016 (≈ 0.0263 µM) | – | CC(=O)O[C@H]1C[C@@]2(C)[C@@H](C[C@@H](O)[C@H]3[C@@]4(C)CC[C@@H](O)[C@@H](C)C4CC[C@@]32C)/C1=C(\CCCCc1ccc(N=[N+]=[N-])cc1)C(=O)O (stereo partly specified)
2 | 1 (≈ 1.49 µM) | 4 (≈ 5.96 µM) | 1 (≈ 1.49 µM) | 1 (≈ 1.49 µM) | 1 (≈ 1.49 µM) | 0.016 (≈ 0.0238 µM) | 1 (≈ 1.49 µM) | CC(=O)O[C@H]1C[C@@]2(C)[C@@H](C[C@@H](O)[C@H]3[C@@]4(C)CC[C@@H](O)[C@@H](C)C4CC[C@@]32C)/C1=C(\CCCCc1ccc(C(=O)c2ccccc2)cc1)C(=O)O (stereo partly specified)
3 | 1 (≈ 1.48 µM) | 2 (≈ 2.96 µM) | 1 (≈ 1.48 µM) | 1 (≈ 1.48 µM) | 1 (≈ 1.48 µM) | 0.063 (≈ 0.0934 µM) | – | CC(=O)O[C@H]1C[C@@]2(C)[C@@H](C[C@@H](O)[C@H]3[C@@]4(C)CC[C@@H](O)[C@@H](C)C4CC[C@@]32C)/C1=C(\CCCCc1ccc(C2(C(F)(F)F)N=N2)cc1)C(=O)O (stereo partly specified)
4 | < 0.063 | 0.063 (≈ 0.122 µM) | < 0.063 | < 0.063 | 0.063 (≈ 0.122 µM) | 0.016 (≈ 0.031 µM) | 0.063 (≈ 0.122 µM) | CC(=O)O[C@H]1C[C@@]2(C)[C@@H](C[C@@H](O)[C@H]3[C@@]4(C)CC[C@@H](O)[C@@H](C)[C@@H]4CC[C@@]32C)/C1=C(\CCC=C(C)C)C(=O)O [FUSIDIC ACID]
